Data: patent US11084786B2, “Compounds and pharmaceutical composition associated with ubiquitination-proteasome system” (CALGENT BIOTECHNOLOGY CO., LTD., priority 2015, dated 2021)

Legend:
Type in all cases: cell-based
[1] = test system: HL-60; assay: Growth inhibition assay (MTT), HL-60; settings: Homo sapiens, HL-60 cells, 48 hours exposure, read-out: HL-60 IC50 (μM) Mean ± S.E.
Description: (§1) Antiproliferative Activity Against Human Normal and Cancer Cell Lines Using Growth Inhibition Assay (GI50)
(§2) The compounds of the invention were subjected to growth inhibition assay. Cells were seeded in 96-well plastic plates and exposed to MPT0L132, MPT0L133, and MPT0L134 for 48 hours. Cell viability was assessed using the 3-(4,5-dimethylthiazol-2-yl)-2,5-diphenyltetrazolium bromide assay. Growth inhibition was expressed as the percentage of surviving cells in drug-treated versus DMSO-treated control cells.

[2] = test system: HCT-116; assay: Growth inhibition assay (MTT), HCT-116; settings: Homo sapiens, HCT-116 cells, 48 hours exposure, read-out: HCT-116 GI50 (μM) Mean ± S.E.
Description: as §1, §2

[3] = test system: MDA-MB-231; assay: Growth inhibition assay (MTT), MDA-MB-231; settings: Homo sapiens, MDA-MB-231 cells, 48 hours exposure, read-out: MDA-MB-231 GI50 (μM) Mean ± S.E.
Description: as §1, §2

[4] = test system: Hep3B; assay: Growth inhibition assay (MTT), Hep3B; settings: Homo sapiens, Hep3B cells, 48 hours exposure, read-out: Hep3B GI50 (μM) Mean ± S.E.
Description: as §1, §2

Row | IC50 [1] [µM] | GI50 [2] [µM] | GI50 [3] [µM] | GI50 [4] [µM] | Compound
1 | 2.52 ± 0.12 | 3.53 ± 0.24 | 10 to 30 | 10 to 30 | CCN(CC)CCNC(=O)c1ccc(CNC2=C(Cl)C(=O)c3ccccc3C2=O)cc1 [MPT0L134, 4-(((3-chloro-1,4-dioxo-1,4-dihydronaphthalen-2-yl)amino)methyl)-N-(2-(diethylamino)ethyl)benzamide]
2 | 1.67 ± 0.27 | 4.04 ± 0.65 | 10 to 30 | 10 to 30 | O=C(NCCN1CCCC1)c1ccc(CNC2=C(Cl)C(=O)c3ccccc3C2=O)cc1 [MPT0L133, 4-(((3-chloro-1,4-dioxo-1,4-dihydronaphthalen-2-yl)amino)methyl)-N-(2-(pyrrolidin-1-yl)ethyl)benzamide]
3 | 2.5 ± 0.15 | 3.69 ± 0.24 | 10 to 30 | 10 to 30 | CN(C)CCNC(=O)c1ccc(CNC2=C(Cl)C(=O)c3ccccc3C2=O)cc1 [MPT0L132, 4-(((3-chloro-1,4-dioxo-1,4-dihydronaphthalen-2-yl)amino)methyl)-N-(2-(dimethylamino)ethyl)benzamide]
